Test results published in patent publication US20050256161A1, “Melanin concentrating hormone receptor antagonists” (priority 2003, published 2005).

Key:
[1] = target: T1, rat MCH1 receptor (Rattus norvegicus, UniProt P97639); assay: rMCH FLIPR calcium mobilization functional assay; type: cell-based; settings: CHOK1-Gqi cells
T1 construct: expressed in transfected cells
Description: Pharmacological analyses were conducted using either a HT-PS100 device (Axiom Biotechnologies, San Diego, Calif.), which provides high-resolution dose-response fluorometric measurements of [Ca^++]i mobilization, or using a FLIPR® device (Molecular Devices, Sunnyvale, Calif.).
Materials: Pharmacological analysis was conducted using a FLIPR® device (Molecular Devices, Sunnyvale, Calif.). CHOK1-Gqi cells were stably transfected with the rat MCH1 receptor and maintained under G418 antibiotic pressure. FLIPR® assay buffer consisted of phenol red-free DMEM+2.5 mM probenecid. MCH peptide (Amgen, Inc.) was reconstituted in assay buffer and served as the positive agonist control for all experiments. Test compounds were prepared as 10 mM stocks in 100% DMSO and diluted to a top end working concentration of 10 μM in 96 well black, flat bottom, collagen-I coated plates (Becton Dickinson, Bedford, Mass.).
Methods: CHOK1-Gqi cells stably expressing MCH1R were maintained in Dulbeco's modified Eagle's medium (GIBCO/Life Technologies, Rockville, Md.) supplemented with 2 mM glutamine and 10% dialyzed fetal bovine serum (HyClone, Logan, Utah) at 37° C., 5% CO2. Cells were harvested by 10′ treatment with Versene (GIBCO/Life Technologies) followed by trituration, washing twice with cold (4° C.) hybridoma medium (Serum/Protein free, with L-glutamine, sodium bicarbonate, MOPS buffer) (Sigma-Aldrich Corp, St. Louis, Mo.) and replated onto 96 well black, flat bottom, collagen-I coated plates to a density of 10,000 cells/well. The cells were then loaded with the fluorescent calcium indicator Fura-2 (Molecular Probes, Eugene, Oreg.) at 1.6 μM for 60′ at room temperature. The loaded cells were then washed twice with 90 μl/well of wash buffer (1×HBSS, 20 mM HEPES, 2.5 mM probenecid).
Receptor-stimulated intracellular calcium responses were detected using FLIPR® by monitoring increases in the Fura-2 fluorescence response.
Test compounds were screened for MCH1R activity in the FLIPR® for both agonist and antagonist action. Agonist mode challenges were conducted at a maximum gradient concentration of 1 μM. Antagonist activity was tested by 10 min pre-incubation of cells at a compound concentration of defined to be 300× the EC50 of MCH (typically 1 μM), with subsequent introduction of MCH at a concentration 5-fold of EC50 as determined in preliminary experiments.
Schild experiments were conducted on the FLIPR® for selected compounds by co-administering antagonist compounds together with MCH peptide. Several fixed concentrations of antagonist compounds were prepared in 10-fold increments, and presented to the cells in a gradient of increasing MCH concentration. Values for compound pA2 were calculated by linear regression of MCH EC50s as a function of antagonist concentration.

[2] = target: T2, human MCH receptor (Homo sapiens, UniProt Q99705); assay: hMCH FLIPR calcium mobilization functional assay; type: cell-based; settings: threshold 100 μM or less
T2 construct: expressed in transfected cells
T2 sequence (Q99705 whole entry): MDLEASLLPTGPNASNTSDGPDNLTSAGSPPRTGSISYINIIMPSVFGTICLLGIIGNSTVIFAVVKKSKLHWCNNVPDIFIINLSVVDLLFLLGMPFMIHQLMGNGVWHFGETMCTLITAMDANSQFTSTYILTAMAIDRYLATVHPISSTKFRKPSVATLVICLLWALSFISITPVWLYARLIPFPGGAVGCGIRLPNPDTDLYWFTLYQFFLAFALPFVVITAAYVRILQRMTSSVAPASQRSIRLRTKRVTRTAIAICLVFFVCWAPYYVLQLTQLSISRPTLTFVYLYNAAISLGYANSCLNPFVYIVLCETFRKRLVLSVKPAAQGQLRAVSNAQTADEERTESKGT

[3] = target: T3, rat MCH 1 receptor (rMCH1R) (Rattus norvegicus, UniProt P97639); assay: Ligand binding assay (125I native-MCH), rMCH; settings: rMCH1R expressed in HEK 293, membranes, 0.2 nM 125I native-MCH
T3 construct: expressed in transfected cells; host or cells: HEK 293 (membrane preparation)
T3 sequence (P97639 whole entry): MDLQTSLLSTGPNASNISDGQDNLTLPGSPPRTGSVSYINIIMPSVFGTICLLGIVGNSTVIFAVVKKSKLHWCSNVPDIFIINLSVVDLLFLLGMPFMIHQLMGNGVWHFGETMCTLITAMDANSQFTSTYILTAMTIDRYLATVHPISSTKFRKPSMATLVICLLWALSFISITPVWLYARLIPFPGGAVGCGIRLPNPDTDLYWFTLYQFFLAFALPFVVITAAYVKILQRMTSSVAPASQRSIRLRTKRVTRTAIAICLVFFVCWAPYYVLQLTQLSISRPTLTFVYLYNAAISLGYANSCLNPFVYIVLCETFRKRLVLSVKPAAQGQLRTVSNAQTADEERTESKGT
Description: (§1) Human embryonic kidney cells (293 total) expressing either human, rat, or mouse MCH receptor were harvested from 150 mm culture dishes using PBS. Spinning at 1500 rpm for 2 minutes initially pelleted cells. The resulting pellet was then homogenized in 15 mL ice cold sucrose buffer (25 mM HEPES, 0.3 M sucrose, pH 7.4) with a motorized, glass fitted, Teflon® homogenizer. The homogenate was centrifuged at 48,000×g at 4° C. for 10 minutes, resuspended in 15 mL assay buffer (25 mM HEPES, 10 mM MgCl2, 0.2% BSA, 0.1 mg/mL STI, 0.1 mg/mL Pefabloc®, 1 μM Phosphoramidon, pH 7.4) with a Tissue-Tearor® (Biospec Products) and centrifuged again at 48,000×g for 10 minutes. The pellet was homogenized for a third time in 15 mL assay buffer using the Tissue-Tearor® and again centrifuged at 48,000×g for 10 minutes. The resulting pellet was resuspended in assay buffer at a wet weight concentration of 10-20 mg/mL.
(§2) Binding assays were determined as described below using mouse, rat or human MCH 1 receptors (mMCH1R, rMCH1R, and hMCH1R, respectively) expressed in HEK 293; IC50 values were calculated.
(§3) Binding assays were performed in 96-well U-bottom plates. Membranes (100 μg tissue) were incubated at 30° C. for 90 minutes in assay buffer with various peptides in the presence of 0.2 nM 125I native-MCH (Perkin-Elmer Life Sciences, Boston, Mass.) in 100 μL total volume. Non-specific binding was assessed in the presence of 1 μM cold native-MCH. The reaction was terminated by rapid filtration through Unfilter-96 GF/C glass fiber filter plates (FilterMate® 196 Harvester, Packard Instrument Co., Meriden, Conn.) pre-soaked in PBS/0.5% BSA, followed by three washes with 300 μL ice-cold water. Bound radioactivity was determined using a TopCount® microplate scintillation and luminescence counter (Packard Instrument Co., Meriden, Conn.). Nonlinear regression analyses of drug concentration curves were performed using GraphPad Prism® (GraphPad Software, Inc., San Diego, Calif.).

[4] = target: T4, human MCH 1 receptor (hMCH1R) (Homo sapiens, UniProt Q99705); assay: Ligand binding assay (125I native-MCH), hMCH; settings: hMCH1R expressed in HEK 293, membranes, 0.2 nM 125I native-MCH
T4 construct: expressed in transfected cells; host or cells: HEK 293 (membrane preparation)
T4 sequence (Q99705 whole entry): as the sequence (Q99705 whole entry) above
Description: as §1, §2, §3

T1 sequence (P97639 whole entry): as the sequence (P97639 whole entry) above

Ki ([1]; threshold 100 μM or less) [µM]	Ki [2] [µM]	IC50 ([3]; threshold 100 nM or less) [µM]	IC50 ([3]; threshold 100 μM or less) [µM]	Ki ([1]; threshold 100 nM or less) [µM]	IC50 ([4]; threshold 100 nM or less) [µM]	IC50 ([4]; threshold 100 μM or less) [µM]	Compound
≤ 100		≤ 0.1	≤ 100	≤ 0.1	≤ 0.1	≤ 100	Cc1ccc(Oc2ccc(C(=O)NCCN3CCCC3)cc2NC(=O)Nc2cccc(F)c2)cc1C [Compound 39, 4-(3,4-dimethylphenoxy)-3-[3-(3-fluorophenyl)ureido]-N-(2-pyrrolidin-1-yl-ethyl)benzamide]
			≤ 100			≤ 100	Cc1ccc(Oc2ccc(C(=O)NCCN3CCCC3)cc2NC(=O)c2ccc3ccccc3c2)cc1C [Compound 17, naphthalene-2-carboxylic acid [2-(3,4-dimethylphenoxy)-5-(2-pyrrolidin-1-yl-ethylcarbamoyl)phenyl]amide]
		≤ 0.1	≤ 100		≤ 0.1	≤ 100	O=C(Nc1cc(F)cc(F)c1)Nc1cc(C(=O)NCCN2CCCC2)ccc1Oc1ccc(Cl)c(Cl)c1 [Compound 66, 4-(3,4-dichlorophenoxy)-3-[3-(3,5-difluorophenyl)ureido]-N-(2-pyrrolidin-1-yl-ethyl)benzamide]
			≤ 100			≤ 100	Cc1ccc(Oc2ccc(C(=O)NCCN3CCCC3)cc2NC(=O)N(C)c2ccccc2)cc1C [Compound 43, 4-(3,4-dimethylphenoxy)-3-(3-methyl-3-phenylureido)-N-(2-pyrrolidin-1-yl-ethyl)benzamide]
≤ 100			≤ 100		≤ 0.1	≤ 100	Cc1ccc(Oc2ccc(C(=O)NCCN3CCCC3)cc2NC(=O)Nc2ccc(-c3ccccc3)cc2)cc1C [Compound 33]
			≤ 100			≤ 100	CC(=O)Nc1cc(C(=O)NCCN2CCCC2)ccc1Oc1ccc(C)c(C)c1 [Compound 10, 3-acetylamino-4-(3,4-dimethylphenoxy)-N-(2-pyrrolidin-1-yl-ethyl)benzamide]
	≤ 100	≤ 0.1	≤ 100				O=C(Nc1cccc(F)c1)Nc1cc(C(=O)NCCN2CCCC2)ccc1Oc1ccc(Cl)c(Cl)c1 [Compound 52, 4-(3,4-dichlorophenoxy)-3-[3-(3-fluorophenyl)ureido]-N-(2-pyrrolidin-1-yl-ethyl)benzamide]
≤ 100			≤ 100			≤ 100	COc1ccccc1NC(=O)Nc1cc(C(=O)NCCN2CCCC2)ccc1Oc1ccc(C)c(C)c1 [Compound 30, 4-(3,4-dimethylphenoxy)-3-[3-(2-methoxyphenyl)ureido]-N-(2-pyrroliidin-1-yl-ethyl)benzamide]
≤ 100		≤ 0.1	≤ 100	≤ 0.1	≤ 0.1	≤ 100	Cc1ccc(Oc2ccc(C(=O)NCCN3CCCC3)cc2NC(=O)Nc2ccc(Cl)cc2Cl)cc1C [Compound 31, 3-[3-(2,4-dichlorophenyl)ureido]-4-(3,4-dimethylphenoxy)-N-(2-pyrrolidin-1-yl-ethyl)benzamide]
			≤ 100			≤ 100	CCNC(=O)Nc1cc(C(=O)NCCN2CCCC2)ccc1Oc1ccc(C)c(C)c1 [Compound 18, 4-(3,4-dimethylphenoxy)-3-(3-ethylureido)-N-(2-pyrrolidin-1-yl-ethyl)benzamide]
			≤ 100			≤ 100	Cc1ccc(Oc2ccc(C(=O)NCCN3CCCC3)cc2NC(=O)Cc2ccccc2)cc1C [Compound 13, 4-(3,4-dimethylphenoxy)-3-phenylacetylarnino-N-(2-pyrrolidin-1-yl-ethyl)benzamide]

More lines, now with the values behind:

Compound	Ki ([1]; threshold 100 μM or less) [µM]	Ki [2] [µM]	IC50 ([3]; threshold 100 nM or less) [µM]	IC50 ([3]; threshold 100 μM or less) [µM]	Ki ([1]; threshold 100 nM or less) [µM]	IC50 ([4]; threshold 100 nM or less) [µM]	IC50 ([4]; threshold 100 μM or less) [µM]
O=C(Nc1cccc(F)c1)Nc1cc(C(=O)NCCN2CCCC2)ccc1Oc1ccc(F)c(F)c1 [Compound 53, 4-(3,4-difluorophenoxy)-3-[3-(3-fluorophenyl)ureido]-N-(2-pyrrolidin-1-yl-ethyl)benzamide]	≤ 100	≤ 100	≤ 0.1	≤ 100			
O=C(Nc1cccc(F)c1)Nc1cc(C(=O)NCCN2CCCC2)ccc1Oc1ccccc1 [Compound 61, 3-[3-(3-fluorophenyl)ureido]-4-phenoxy-N-(2-pyrrolidin-1-yl-ethyl)benzamide]			≤ 0.1	≤ 100			
Cc1ccc(Oc2ccc(C(=O)NCCN3CCCC3)cc2NC(=O)N(c2ccccc2)c2ccccc2)cc1C [Compound 42, 4-(3,4-dimethylphenoxy)-3-(3,3-diphenylureido)-N-(2-pyrrolidin-1-yl-ethyl)benzamide]				≤ 100			≤ 100
O=C(NCCN1CCCC1)c1ccc(Oc2ccccc2)cc1 [Compound 8, 4-(phenyloxy)-N-(2-(1-pyrrolidinyl)ethyl)benzamide]							≤ 100
Cc1ccc(Oc2ccc(C(=O)NCCN)cc2NC(=O)CCc2ccccc2)cc1C [Compound 20, N-(2-aminoethyl)-4-(3,4-dimethylphenoxy)-3-(3-phenylpropionylamino)benzamide]							≤ 100
Cc1ccc(Oc2ccc(C(=O)NCCN3CCCC3)cc2NC(=O)[C@@H]2C[C@H]2c2ccccc2)cc1C (stereo in doubt) [Compound 16, 4-(3,4-dimethylphenoxy)-3-[(2-phenyl-cyclopropanecarbonyl)amino]-N-(2-pyrrolidin-1-yl-ethyl)benzamide]				≤ 100			≤ 100
Cc1ccc(Oc2ccc(C(=O)NCCN3CCCC3)cc2NC(=O)CCC2CCCC2)cc1C [Compound 12, 3-(3-cyclopentylpropionylamino)-4-(3,4-dimethylphenoxy)-N-(2-pyrrolidin-1-yl-ethyl)benzamide]				≤ 100			≤ 100
O=C(CCc1ccccc1)Nc1cc(C(=O)NCCN2CCCC2)ccc1Oc1ccc2ccccc2c1 [Compound 22]	≤ 100						
Cc1ccc(Oc2ccc(C(=O)NCCN3CCCC3)cc2NC(=O)/C=C/c2ccccc2)cc1C [Compound 15, 4-(3,4-dimethylphenoxy)-3-(3-phenyl-acryloylamino)-N-(2-pyrrolidin-1-yl-ethyl)benzamide]	≤ 100			≤ 100	≤ 0.1		≤ 100
Cc1ccc(Oc2ccc(C(=O)NCCN3CCCC3)cc2NC(=O)Nc2ccc(Oc3ccccc3)cc2)cc1C [Compound 32, 4-(3,4-dimethylphenoxy)-3-[3-(4-phenoxyphenyl)ureido]-N-(2-pyrrolidin-1-yl-ethyl)benzamide]	≤ 100			≤ 100	≤ 0.1	≤ 0.1	≤ 100
